Where “and” joins values, the source holds several entries; their conditions need not be identical. Equal values may be shown once. Read-outs that look alike come from different tables or passages of the source.
Experiments:
rat footpad = assay: Rat footpad (paw-lick) pain test; assay type: in vivo, Male Sprague Dawley rats; conditions: for Mean time pain response, 0-10 min. / Mean time pain response, 10-20 min.: 8 rats per group; for Pain response in the rat footpad model (result in words): Examples 1-7 and 10, footpad injection 0.1 or 0.2 ml; for Pain in rat footpad model, survey of detergents (result in words): Example 9, injected at concentrations above the CMC for the detergent
Excerpt: An animal model, the rat paw-lick (footpad) model, which has previously been employed for detection of pain associated with the injection of antibiotics, was utilized (Celozzi et al. J. Pharmacol. Methods, 1980, 4:[…]; Comerski et al., Fundamental and Appl. Toxicology, 1986, 6:335-338). This model monitors the amount of time the rats spend lifting, licking, and biting the injected paw.
The “rat footpad pain” or “rat paw-lick” test or model as used herein refers to a test or model used to determine the pain induced by a specific formulation upon injection. The test consists of uniformly injecting into the footpad of rats of the same species and approximately the same weights compositions to be assessed as pain causing agents along with compositions known to cause pain at the injection site, as well as compositions known not to cause pain at the injection site. A statistically significant number of animals are to be used for each test and control formulation. After the injection, the animal is placed in a cage with mirrors and then observed by a technician (preferably blinded as to the identity of the immunogenic composition) for 20 to 30 minutes for flinching, lifting, licking, or biting of the injected paw. The amount of time spent on these pain response behaviors are recorded using a stopwatch and summed for 10 minute periods.
The phrase “less painful” as used herein refers to an alteration in the composition that leads to a reduction in the length of time or intensity, or both, of a pain response compared to that of the non-altered composition as measured by the rat footpad pain test. The phrase “50% reduction in pain” as used herein refers to a 50% reduction in the amount of time spent on pain responses as measured by the rat footpad pain test when comparing altered and unaltered immunogenic compositions administered in equal injection volumes by the same means and observed for the same length of time. The number of animals in each group is a statistically significant number. Observation of the different injection groups is preferably done by the same technician and who is blinded as to the identification of the compositions.
Rat footpad pain testing. The immunogenic composition samples were brought to room temperature prior to being administered to the animals. The animals were injected by a technician who was not involved in the monitoring of pain responses. Male Sprague Dawley rats (Crl:CD®(SD)IGS BR, 50-100 g at arrival) from Charles River Laboratories Inc. (Kingston, N.Y.) were used for all studies. The rats were acclimated at the research facility for approximately one week prior to initiation of a study, at which point they weighed 100-150 g. The paw to be injected was examined prior to injection to verify absence of any injury. The animal was then restrained in the technician's arm such that the hind legs extended forward. The right rear leg was grasped just above the hock joint and pressure was exerted to hold the paw straight out, with plantar (sole) facing upwards. Using a new 23 gauge needle for each animal, the operator inserted the bevel side up in the center of paw, parallel to the surface of the paw, until the needle was in the center of the pad. The material was then injected and the needle left in place for 3-5 seconds prior to withdrawal, to minimize leakage from the injection site. […]
The animal was then placed in a cage with 3 mirrors (adjoining sides and floor) and observed by a different technician (blinded as to the identity of the immunogenic composition) for 30 minutes for flinching, lifting, licking, or biting of the injected paw. The length of time spent on these pain response behaviors was recorded using a stopwatch and summed for 10 minute periods. […]
Statistical Analysis. Results were analyzed using an ANOVA method adjusting for multiple comparisons that compared each treatment group with control group who received buffer alone (either PBS or TBS). […]

[1] = known critical micelle concentrations, cited from earlier work
[2] = Example 1 (Table 1), 0.1 ml footpad injection, 6 rats per group
[3] = Example 4 (Table 7), 0.2 ml injection (formalin 0.1 ml), 10 rats per group
[4] = Example 6 (Table 11), 0.2 ml injection (formalin 0.1 ml), 10 rats per group
[5] = Example 7 (Table 13), 0.2 ml injection (formalin 0.1 ml), 10 rats per group
[6] = Example 9 (Table 15), concentration 5%, 100 μl
[7] = Example 9 (Table 16), concentration 5%, 100 μl
[8] = Example 9 (Table 17), concentration 5%, 100 μl
[9] = Example 9 (Table 16), concentration 0.9%, 200 μl
[10] = Example 9 (Table 17), concentration 0.8%, 200 μl
[11] = Example 9 (Table 17), concentration 7 mM, 200 μl
[12] = Example 9 (Table 16), concentration 1%, 200 μl
[13] = Example 9 (Table 16), concentration 0.025%, 200 μl
[14] = Example 9 (Table 15), detergent concentration 0.05%, 200 μl
[15] = Example 9 (Table 15), detergent concentration 0.05%, 200 μl, listed as Zw3-14
[16] = Example 9 (Table 16), concentration 0.02%, 200 μl
[17] = Example 9 (Table 17), concentration 0.5%, 200 μl

C=O [5% Formalin]
Time pain response, Mean, 0-10 min. (rat footpad; [2]): 274 s
Time pain response, Mean, 10-20 min. (rat footpad; [2]): 312 sec
Time pain response, Mean, 20-30 min. (rat footpad; [2]): 450 s
Time pain response, Median, 10-20 min. (rat footpad; [2]): 292 sec
Time pain response, Median, 20-30 min. (rat footpad; [2]): 448 s
Time pain response, Median, 0-10 min. (rat footpad; Example 1 (Table 1), 0.1 ml footpad injection, 6 rats per group, PBS not pyrogen-free): 311 s
0-10 min. time pain response, Mean (rat footpad; [3]): 178 s
0-10 min. time pain response, Median (rat footpad; [3]): 162 s
10-20 min. time pain response, Mean (rat footpad; [3]): 174 sec
10-20 min. time pain response, Median (rat footpad; [3]): 173 sec
0-10 min. time pain response, Mean (rat footpad; [4]): 225 s
0-10 min. time pain response, Median (rat footpad; [4]): 219 s
10-20 min. time pain response, Mean (rat footpad; [4]): 167 sec
10-20 min. time pain response, Median (rat footpad; [4]): 181 sec
0-10 min time pain response, Mean (rat footpad; [5]): 252 s
0-10 min time pain response, Median (rat footpad; [5]): 233 s
10-20 min. time pain response, Mean (rat footpad; [5]): 435 sec
10-20 min. time pain response, Median (rat footpad; [5]): 448 sec
Mean time pain response, 0-10 min. (rat footpad; [6]): 161.3 s
Mean time pain response, 10-20 min. (rat footpad; [6]): 313.5 sec.
Mean time pain response, 0-10 min. (rat footpad; [7]): 114 s
Mean time pain response, 10-20 min. (rat footpad; [7]): 218 sec.
Mean time pain response, 0-10 min. (rat footpad; [8]): 272.5 s
Mean time pain response, 10-20 min. (rat footpad; [8]): 280.4 sec.
Pain response in the rat footpad model (result in words) (rat footpad): induced the highest pain response among the compositions tested

C[C@H](CCC(=O)N(CCCNC(=O)[C@H](O)[C@@H](O)[C@H](O)[C@H](O)CO)CCCNC(=O)[C@H](O)[C@@H](O)[C@H](O)[C@H](O)CO)[C@H]1CC[C@H]2[C@@H]3[C@H](O)C[C@@H]4C[C@H](O)CC[C@]4(C)[C@H]3C[C@H](O)[C@]12C [BigCHAP ®, N,N-bis(3-D-glucon-amidopropyl)cholamide]
CMC [1]: 3 to 4 mM
CMC (%) [1]: 0.3%

C[C@H](CCC(=O)NCCC[N+](C)(C)CCCS(=O)(=O)[O-])[C@H]1CC[C@H]2[C@@H]3[C@H](O)C[C@@H]4C[C@H](O)CC[C@]4(C)[C@H]3C[C@H](O)[C@]12C [CHAPS ®, 3-[(3-Cholamidopropyl)dimethylammonio]-1-propanesulfonate]
Mean time pain response, 0-10 min. (rat footpad; [9]): 351 s
Mean time pain response, 10-20 min. (rat footpad; [9]): 114 sec.
Pain in rat footpad model, survey of detergents (result in words) (rat footpad): caused significant pain
Pain response in the rat footpad model (result in words) (rat footpad): cause considerable pain
CMC [1]: 6 to 10 mM
CMC (%) [1]: 0.18-0.62%

CCCCCCCCCCCCO[C@@H]1O[C@H](CO)[C@@H](O[C@H]2O[C@H](CO)[C@@H](O)[C@H](O)[C@H]2O)[C@H](O)[C@H]1O [Dodecyl maltoside, n-Dodecyl-beta-D-maltoside]
Mean time pain response, 0-10 min. (rat footpad; [10]): 298.0 s
Mean time pain response, 10-20 min. (rat footpad; [10]): 141.0 sec.
Pain in rat footpad model, survey of detergents (result in words) (rat footpad): induced pain

CCCCCCCCCC(=O)N(C)C[C@H](O)[C@@H](O)[C@H](O)[C@H](O)CO [Mega10, Decanoyl-N-methylglucamide]
Mean time pain response, 0-10 min. (rat footpad; [11]): 28.8 s
Mean time pain response, 10-20 min. (rat footpad; [11]): 31.0 sec.

CCCCCCCCO[C@@H]1O[C@H](CO)[C@@H](O)[C@H](O)[C@H]1O [Octyl glucoside, n-Octyl-b-D-glucopyranoside]
Mean time pain response, 0-10 min. (rat footpad; [12]): 48 s
Mean time pain response, 10-20 min. (rat footpad; [12]): 108 sec.
Pain in rat footpad model, survey of detergents (result in words) (rat footpad): induced pain
Pain response in the rat footpad model (result in words) (rat footpad): cause considerable pain

CCCCCCCC/C=C\CCCCCCCC(=O)OCCOCC(OCCO)C1OCC(OCCO)C1OCCO (stereo not shown) [TWEEN 80, Polyoxyethylene (20) sorbitan monooleate]
Mean time pain response, 0-10 min. (rat footpad; [13]): 3 s
Mean time pain response, 10-20 min. (rat footpad; [13]): 6 sec.
Pain in rat footpad model, survey of detergents (result in words) (rat footpad): do not cause significant pain
CMC [1]: 0.012 mM
CMC (%) [1]: 0.0016%

CCCCCCCC[N+](C)(C)CCCS(=O)(=O)[O-] [Zwittergent ® 3-8, n-Octyl-N,N-dimethyl-3-ammonio-1-propanesulfonate]
CMC [1]: 330 mM
CMC (%) [1]: 4.6-10.9%

CCCCCCCCCC[N+](C)(C)CCCS(=O)(=O)[O-] [Zwittergent ® 3-10, n-Decyl-N,N-dimethyl-3-ammonio-1-propanesulfonate]
Mean time pain response, 0-10 min. (rat footpad; [10]): 300.6 s
Mean time pain response, 10-20 min. (rat footpad; [10]): 260.5 sec.
Pain in rat footpad model, survey of detergents (result in words) (rat footpad): caused significant pain
CMC [1]: 25 to 40 mM
CMC (%) [1]: 0.43-1.23%

CCCCCCCCCCCC[N+](C)(C)CCCS(=O)(=O)[O-] [Zwittergent ® 3-12, n-Dodecyl-N,N-dimethyl-3-ammonio-1-propanesulfonate]
Mean time pain response, 0-10 min. (rat footpad; [14]): 295.3 s
Mean time pain response, 10-20 min. (rat footpad; [14]): 139.8 sec.
Pain in rat footpad model, survey of detergents (result in words) (rat footpad): caused significant pain
Pain response in the rat footpad model (result in words) (rat footpad): responsible for the pain on injection
CMC [1]: 2 to 4 mM
CMC (%) [1]: 0.047-0.13%

CCCCCCCCCCCCCC[N+](C)(C)CCCS(=O)(=O)[O-] [Zwittergent ® 3-14, n-Tetradecyl-N,N-dimethyl-3-ammonio-1-propanesulfonate]
Mean time pain response, 0-10 min. (rat footpad; [15]): 44.7 s and 37.8 s
Mean time pain response, 10-20 min. (rat footpad; [15]): 33.6 sec. and 30.1 sec.
Pain in rat footpad model, survey of detergents (result in words) (rat footpad): caused significant pain
Pain response in the rat footpad model (result in words) (rat footpad): responsible for the pain on injection
CMC [1]: 0.1 to 0.4 mM
CMC (%) [1]: 0.004-0.015%
CMC (%) ([1]; listed as Zw 3-14): 0.004%-0.015%

Polyoxyethylene (35) Lauryl Ether [BRIJ]
Mean time pain response, 0-10 min. (rat footpad; [16]): 1 s
Mean time pain response, 10-20 min. (rat footpad; [16]): 0 sec.
Pain in rat footpad model, survey of detergents (result in words) (rat footpad): do not cause significant pain
CMC [1]: 0.09 mM
CMC (%) [1]: 0.011%

Sodium deoxycholate
Mean time pain response, 0-10 min. (rat footpad; [17]): 307.0 s
Mean time pain response, 10-20 min. (rat footpad; [17]): 121.9 sec.

alpha-[4-(1,1,3,3-tetramethylbutyl)phenyl]-omega-hydroxypoly(oxy-1,2-ethanediyl) [TRITON ® X-100]
Mean time pain response, 0-10 min. (rat footpad; [14]): 8.5 s
Mean time pain response, 10-20 min. (rat footpad; [14]): 11.2 sec.
Pain in rat footpad model, survey of detergents (result in words) (rat footpad): do not cause significant pain
CMC [1]: 0.2 to 0.9 mM
CMC (%) [1]: 0.013-0.056%

Reference: patent publication US7608278B2, “Formulations of hydrophobic proteins in an immunogenic composition having improved tolerability” (priority 2003, dated 2009)
